In ChEMBL document CHEMBL3886833, “Therapeutic prostaglandin receptor agonists” (2016):

Experiments:
[1] = target: T1, Prostaglandin E2 receptor EP2 subtype (Homo sapiens, UniProt P43116); test: cAMP Assay: A 384-well drug plate was prepared to contain test compounds, PGE2 and cAMP in 16 serial dilutions in triplicate, using a Biomek station. HEK-EBNA cells expressing a target PG receptor subtype (EP2 or EP4) were suspended in a stimulation buffer (HBSS, 0.1% BSA, 0.5 mM IBMX and 5 mM HEPES, pH 7.4) in a density of 10^4 cells/5 μl. The reaction was initiated by mixing 5 μL drug dilutions with 5 μl of HEK-EBNA cells in a well, carried out for 30 min at room temperature, and followed by the addition of 5 μl anti-cAMP acceptor beads in the control buffer with Tween-20 (25 mM NaCl, 0.03% Tween-20, 5 mM HEPES, pH7.4). After 30 min in the dark at room temperature, the mixtures were incubated with 15 μl biotinylated-cAMP/strpavidin donor beads in Lysis/Detection buffer (0.1% BSA, 0.3% Tween-20 and 5 mM HEPES, pH7.4) for 45 min at the room temperature. Fluorescence changes were read using a Fusion-alpha HT microplate reader.; type: functional, cell-based, 104
T1 sequence (P43116 whole entry): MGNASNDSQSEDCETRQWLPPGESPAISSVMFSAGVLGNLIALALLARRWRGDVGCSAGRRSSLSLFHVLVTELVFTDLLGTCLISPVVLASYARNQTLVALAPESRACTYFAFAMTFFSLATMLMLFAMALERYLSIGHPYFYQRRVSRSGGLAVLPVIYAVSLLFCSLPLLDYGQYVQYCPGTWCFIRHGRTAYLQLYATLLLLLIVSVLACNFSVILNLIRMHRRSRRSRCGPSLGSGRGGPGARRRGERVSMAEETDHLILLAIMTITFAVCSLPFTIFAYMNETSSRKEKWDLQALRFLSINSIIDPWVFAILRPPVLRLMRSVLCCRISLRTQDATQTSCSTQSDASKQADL

[2] = target: T1, Prostaglandin E2 receptor EP2 subtype; test: Radioligand Binding Assay: The cell homogenate was centrifuged at 19000 r.p.m. for 20 min at 4° C. using a Beckman Ti-60 rotor. The resultant pellet was resuspended in TME buffer to give a final 1 mg/ml protein concentration, as determined by Biorad assay. Radioligand binding competition assays vs. [3H-]17-phenyl PGF2a , (5 nM) were performed in a 100 μl volume for 60 min. Binding reactions were started by adding plasma membrane fraction. The reaction was terminated by the addition of 4 ml ice-cold TRIS-HCl buffer and rapid filtration through glass fiber GF/B filters using a Brandel cell harvester. The filters were washed 3 times with ice-cold buffer and oven dried for one hour. [3H-] PGE2 (specific activity 180 Ci mmol) was used as the radioligand for EP receptors. [3H] 17-phenyl PGF2a, was employed for FP receptor binding studies. Binding studies employing EP1, EP2, EP4 and FP receptors were performed in duplicate in at least three separate experiments. A 200 μl assay volume was used. Incubations w; type: cell-free
Thromboxane A2 receptor = target: T2, Thromboxane A2 receptor (Homo sapiens, UniProt P21731); test: FLIPR Assay: Calciium Signal Studies of the Flipr. Cells were seeded at a density of 5×10^4 cells per well in Biocoati® Poly-D-lysine-coated black-wall, clear-bottom 96-well plates (Becton-Dickinson) and allowed to attach overnight in an incubator at 37° C. Cells were then washed two times with HBSS-HEPES buffer (Hanks Balanced Salt Solution without bicarbonate and phenol red, 20 mM HEPES, pH 7.4) using a Denley Cellwash plate washer (Labsystems). After 45 minutes of dye-loading in the dark, using the calcium-sensitive dye Fluo-4 AM at a final concentration of 2 μM, plates were washed four times with HBSS-HEPES buffer to remove excess dye leaving 100 μl in each well. Plates were re-equilibrated to 37° C. for a few minutes. Cells were excited with an Argon laser at 488 nm, and emission was measured through a 510-570 nm bandwidth emission filter (FLIPR, Molecular Devices, Sunnyvale, Calif.). Drug solution was added in a 50 μl volume to each well to give the desired final concentration.; type: functional
T2 sequence (P21731 whole entry): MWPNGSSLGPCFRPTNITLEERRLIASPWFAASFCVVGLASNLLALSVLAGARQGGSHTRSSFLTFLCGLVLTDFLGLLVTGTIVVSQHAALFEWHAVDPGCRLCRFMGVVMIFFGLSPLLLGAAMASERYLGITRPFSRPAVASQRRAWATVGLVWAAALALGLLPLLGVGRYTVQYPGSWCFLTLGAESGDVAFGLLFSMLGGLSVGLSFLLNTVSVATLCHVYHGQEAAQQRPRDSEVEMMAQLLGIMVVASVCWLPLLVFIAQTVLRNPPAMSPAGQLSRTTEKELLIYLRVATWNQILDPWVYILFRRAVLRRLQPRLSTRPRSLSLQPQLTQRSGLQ

With O=C(O)c1ccc(CC[C@H]2C(=O)CC[C@@H]2/C=C/C(O)Cc2cccc(Br)c2)cc1 (single isomer, unassigned) the EC50 [1] was 0.008 µM, the Ki [2] was 1.17 µM and the EC50 (Thromboxane A2 receptor) was 0.1 µM.
